{
  "source": "patent US5607967A",
  "about": "“Treatment of alzheimer's disease with 5-(tetradecyloxy)-2-furan carboxylic acid” (Merck & Co., Inc., priority 1994, dated 1997)",
  "key": {"[1]": {"test_system": "MMTV-luciferase reporter gene", "test": "Luciferase expression in cells transfected only with the MMTV-luciferase reporter gene", "type": "cell-based", "settings": "no receptor transfected", "experimental": "(§1) Transient transfection of COS and CV1 cells was performed as described (Schmidt 1992). Cells were plated (1.5×10^5 in 1 mL) into 12 well dishes in phenol red-free medium supplemented with activated charcoal treated fetal calf serum. The next day 0.12 mL of DNA 10 μg/ml (5 μg receptor DNA and 5 μg reporter plasmid), as a calcium phosphate precipitate, was added to the cells. Ligands were added to the cells 30 minutes after transfection. The next day (18 hours), the cells were washed and fresh ligands added. Twenty-four hours later, cell extracts were prepared and assayed for luciferase enzyme activity using the luciferase assay system (Promega Madison, Wis.). Each transfection was performed in triplicate and the luciferase activity of each sample measured in duplicate using the AutoClinilumat (Berthold Nashua, N.H.)."}, "[2]": {"test_system": "reporter gene under the control of the promoter of SV40", "test": "Luciferase expression with reporter gene under control of the SV40 promoter", "type": "cell-based"}, "[3]": {"target": "T1, GR/PPAR chimeric receptor (Mus musculus, UniProt P23204)", "T1 construct": "COS cells, MMTV-luciferase", "T1 sequence (P23204 1-468)": "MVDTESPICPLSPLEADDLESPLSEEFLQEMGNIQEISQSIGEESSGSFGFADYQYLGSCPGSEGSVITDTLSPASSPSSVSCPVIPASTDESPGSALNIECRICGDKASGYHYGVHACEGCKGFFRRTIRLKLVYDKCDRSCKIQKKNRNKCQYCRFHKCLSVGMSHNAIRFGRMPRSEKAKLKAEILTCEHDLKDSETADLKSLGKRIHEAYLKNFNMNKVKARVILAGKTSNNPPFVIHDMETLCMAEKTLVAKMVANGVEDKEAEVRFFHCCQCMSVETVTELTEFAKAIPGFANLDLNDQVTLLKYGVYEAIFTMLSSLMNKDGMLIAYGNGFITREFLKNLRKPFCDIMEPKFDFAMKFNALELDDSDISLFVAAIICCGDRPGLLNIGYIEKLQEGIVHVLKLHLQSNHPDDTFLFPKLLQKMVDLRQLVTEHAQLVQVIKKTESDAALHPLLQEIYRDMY", "T1 sequence (P06537 1-792 partner)": "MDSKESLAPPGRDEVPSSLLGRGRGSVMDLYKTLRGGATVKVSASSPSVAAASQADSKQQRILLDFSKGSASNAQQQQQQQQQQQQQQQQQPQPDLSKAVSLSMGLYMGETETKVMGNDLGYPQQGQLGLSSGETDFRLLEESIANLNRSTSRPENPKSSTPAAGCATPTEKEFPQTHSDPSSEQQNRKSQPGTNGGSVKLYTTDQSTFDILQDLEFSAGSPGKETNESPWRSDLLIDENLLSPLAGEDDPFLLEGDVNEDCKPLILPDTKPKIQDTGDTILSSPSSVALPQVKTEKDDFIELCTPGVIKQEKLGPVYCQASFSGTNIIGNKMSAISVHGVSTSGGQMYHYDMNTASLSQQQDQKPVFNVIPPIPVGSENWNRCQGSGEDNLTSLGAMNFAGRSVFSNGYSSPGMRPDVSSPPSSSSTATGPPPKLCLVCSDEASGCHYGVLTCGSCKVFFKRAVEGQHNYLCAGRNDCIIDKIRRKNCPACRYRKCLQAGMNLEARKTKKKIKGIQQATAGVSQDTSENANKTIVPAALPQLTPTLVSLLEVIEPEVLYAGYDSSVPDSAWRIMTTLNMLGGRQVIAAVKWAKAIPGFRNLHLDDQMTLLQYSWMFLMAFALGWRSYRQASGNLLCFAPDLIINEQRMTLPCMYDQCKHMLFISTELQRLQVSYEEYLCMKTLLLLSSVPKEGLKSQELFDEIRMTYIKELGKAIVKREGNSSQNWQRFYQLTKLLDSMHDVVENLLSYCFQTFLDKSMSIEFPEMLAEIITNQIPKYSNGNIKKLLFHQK", "test": "Ligand dependent transcription assay, GR/PPAR chimeric receptor with MMTV-luciferase reporter", "type": "cell-based", "settings": "read-out: Fold of stimulation GR/PPAR"}, "human NUCI receptor": {"target": "T2, human NUCI receptor (Homo sapiens, UniProt Q03181)", "T2 sequence (Q03181 1-441)": "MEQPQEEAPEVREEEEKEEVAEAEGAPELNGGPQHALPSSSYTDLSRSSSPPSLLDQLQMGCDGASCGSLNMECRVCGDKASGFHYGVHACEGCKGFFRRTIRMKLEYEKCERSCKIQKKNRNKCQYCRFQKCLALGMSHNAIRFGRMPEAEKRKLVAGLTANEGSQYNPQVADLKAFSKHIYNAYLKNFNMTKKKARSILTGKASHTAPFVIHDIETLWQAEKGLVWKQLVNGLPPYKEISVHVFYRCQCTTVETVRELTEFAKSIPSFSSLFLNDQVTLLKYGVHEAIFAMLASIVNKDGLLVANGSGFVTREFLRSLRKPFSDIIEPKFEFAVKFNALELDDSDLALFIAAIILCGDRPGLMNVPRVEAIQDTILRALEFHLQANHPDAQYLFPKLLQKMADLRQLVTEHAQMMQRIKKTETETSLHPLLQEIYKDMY", "test": "Transcription assay, native NUC-I receptor co-transfected with MMTV-luciferase reporter", "experimental": "(§2) The reporter gene was the plasmid pJA358 in which the expression of firefly luciferase is regulated by two tandem repeats of the glucocorticoid hormone response element (GRE) linked to the MMTV promoter (Boie et al., 1993).\nas §1\n(§3) The transfected cells were treated with TOFA at 2 μM, 10 μM, 20 μM, and 50 μM and oleic acid at 50 μM, and 300 μM."}, "[4]": {"target": "T3, native mouse glucocorticoid receptor (Mus musculus, UniProt P06537)", "T3 sequence (P06537 1-792)": "T1 sequence (P06537 1-792 partner)", "test": "Transcription assay, native glucocorticoid receptor co-transfected with MMTV-luciferase reporter", "experimental": "as §2, §1, §3"}, "[5]": {"settings": "read-out: Fold of stimulation NUC-I"}, "[6]": {"settings": "read-out: Fold of stimulation GR"}},
  "data": [
    {"smiles": "CCCCCCCCCCCCCCOc1ccc(C(=O)O)o1", "note": "[TOFA, 5-(tetradecyloxy)-2-furan carboxylic acid]", "values": [
      {"measurement": "Expression of luciferase, MMTV-luciferase reporter gene only", "setting": "[1]", "value": "did not stimulate the expression of luciferase"},
      {"measurement": "Expression of luciferase, reporter under SV40 promoter", "setting": "[2]", "value": "did not stimulate the expression of luciferase"},
      {"measurement": "fold induction at 2 µM", "setting": "[3]", "value": "2.89 ± 0.13"},
      {"measurement": "fold induction at 20 µM", "setting": "[3]", "value": "5.75 ± 0.14"},
      {"measurement": "Expression of MMTV-luciferase reporter after co-transfection of native NUCI", "setting": "human NUCI receptor", "value": "did not stimulate expression"},
      {"measurement": "fold induction at 2 µM", "setting": "human NUCI receptor; [5]", "value": "0.83 ± 0.12"},
      {"measurement": "fold induction at 10 µM", "setting": "human NUCI receptor; [5]", "value": "0.94 ± 0.08"},
      {"measurement": "fold induction at 50 µM", "setting": "human NUCI receptor; [5]", "value": "1.27 ± 0.06"},
      {"measurement": "Expression of MMTV-luciferase reporter after co-transfection of native glucocorticoid receptor", "setting": "[4]", "value": "did not stimulate expression"},
      {"measurement": "fold induction at 2 µM", "setting": "[4]; [6]", "value": "1.02 ± 0.4"},
      {"measurement": "fold induction at 10 µM", "setting": "[4]; [6]", "value": "0.8 ± 0.14"},
      {"measurement": "fold induction at 50 µM", "setting": "[4]; [6]", "value": "0.91 ± 0.3"}
    ]}
  ]
}
